Test results published in US20260028404A1 (UNIVERSITY OF KANSAS, priority 2022, published 2026).
“Also recorded” adds a separate entry of the source.

How the values were obtained:
Ki-67 = Ki-67 IHC of pre- and post-treatment tumor specimens; format: in vivo, human; conditions: for Ki67 results, biopsy: before treatment
Experimental: Ki-67 and Caspase-3 levels: To potentially detect an early signal for anti-tumoral efficacy of Copaxone® treatment, changes in the level of Ki-67 and caspase-3 before and after treatment with Copaxone® were evaluated by IHC. FFPE tumor sections from pre-and post-treatment specimens were mounted on the same slide and stained using Caspase 3 (Biocare, Pacheco, CA) and Ki-67 (MIB-1) (Dako, Carpinteria, CA).

EO771 tumors = assay: EO771 triple negative breast cancer model, GA dose escalation with anti-PD1; parameters: species or system C57BL/6 mice; conditions: mouse, in vivo
Experimental: GA was evaluated for its intratumoral efficacy and dose dependency in tumors alone and in combination with systemic anti-PD1 in the murine Triple negative breast cancer model EO771. EO771 cells were implanted to C57BL/6 mice on Day 0. In this study, two doses of intraperitoneal anti-PD1 (100 μg or 250 μg) and three doses of intratumoral GA (300 μg, 1 mg, 2 mg) were evaluated. Primary tumors were measured by caliper measurement. Tumor volumes were calculated according to the formula, tumor volume (mm^3)=0.52×(width)^2 ×length, where length is the longer of two perpendicular dimensions.

[1] = mouse, in vivo; cited from earlier work
CT26wt tumors = assay: Example 6 syngeneic CT26wt model with anti-mPD-L1; format: in vivo, BALB/c mice; conditions: of 8 animals on Day 0
Experimental: FIG. 14. […] Female BALB/c mice were implanted with CT26wt tumor cells into the mammary fat pad on Day 0 and were treated as depicted in the figure legends. […] The number of animals alive on Days 0 (implantation) and 45 (study termination), are shown for each group in parenthesis.
Each experimental group contained eight female BALB/c mice after randomization. On Day 0, 0.5×10^6 CT26wt murine colon adenocarcinoma tumor cells in 100 μl PBS were implanted into the left mammary fat pad of each mouse.
After animals had been randomized on Day 6, treatments were initiated on the same day. […] All groups were evaluated versus the Control, which were animals that had been treated with 25 μl/mouse Vehicle Control (4% mannitol) i.t. in combination with 10 mg/kg Isotype Control i.p.
During the course of the study, individual animals were either euthanized prior to study end without performing a necropsy, after they had reached humane endpoint, or were found dead. On Day 45, the study was terminated and all remaining animals were euthanized without performing a necropsy.

[2] = Window of opportunity trial: adverse events of intratumoral/peritumoral Copaxone injections; format: in vivo, human
Experimental: (§1) Subjects whose tumors were accessible for intratumoral, percutaneous injection and were planned for surgery as the primary treatment were eligible if no other treatment between initial biopsy and surgery was anticipated. During the treatment period, eligible subjects received Copaxone® at 40 mg intratumorally for up to 3 times a week and at least 48 hours apart until 24 hours before the planned surgery. This dosing regimen was consistent with the label for subcutaneous injections of Copaxone®.
This study is an open label single arm window of opportunity trial in patients with resectable solid malignancies whose planned primary treatment is surgical resection conducted at the University of Kansas Cancer Center (KUCC). The patients had to be at least 18 years old with previously untreated histologically confirmed malignant tumor that is percutaneously accessible for intratumoral injection. The injectable tumor must be at least 5 mm in diameter using standard measuring tape. Pretreatment archival tumor tissue consisting of formalin-fixed, paraffin-embedded (FFPE) tumor tissue obtained from standard of care diagnostic biopsy must be available in order to be eligible for the trial. Patients whose lesions are in close proximity to vascular structures (i.e., carotid artery or tumors close to other vital organs such as the trachea), with mucosal lesions only, with known hypersensitivity to Copaxone or with a known condition that leads to immunosuppression such as AIDS or concurrent use of immunosuppressive therapy were considered ineligible. Approval for the study was granted through the institutional review board at University of Kansas Cancer Center and all patients provided written informed consent before study entry. This trial was performed according to the Declaration of Helsinki principles. The KUCC Data and Safety Monitoring Committee (DSMC) performed the oversight of the monitoring of participant safety, conduct and scientific progress of research protocols, and the validity and integrity of the data for clinical trials.
Study treatment: Treatment was administered on an outpatient basis prior to surgery. […] Doses were administered at least 48 hours apart and the last dose given within 96 hours of surgery. This window of 96 hours was chosen because we hypothesized that any immune changes due to Copaxone may remain apparent within 96 hours. No dose adjustments, modifications or delays due to Copaxone® related toxicity were allowed.
Efforts were made to administer the full dose into the lesion, unless it was deemed not practicable by the treating investigator. Tumors were injected using a 28-gauge or smaller needle. Glatiramer acetate (Copaxone®) was thoroughly distributed within the injected tumor using a “fanning method” (to distribute the injection across several angles throughout the lesion to maximize the spread of glatiramer acetate (Copaxone®) in the tumor). The use of local anesthetic prior to Copaxone injection was allowed.
Safety Assessments: Adverse events were assessed at baseline, during Copaxone® dose administration and at time of surgery or end of treatment visit. The revised NCI Common Terminology Criteria for Adverse Events (CTCAE) version 5.0 was utilized for AE reporting and toxicity assessment. Complete blood count, chemistry and INR were done at baseline.
as §1, with “A single-arm, open-label, preoperative window of opportunity trial was conducted to evaluate the feasibility, safety, and local effects of intratumoral/peritumoral injections of Copaxone®. Subjects” for “Subjects”, “This dosing regimen was consistent with the label for subcutaneous injections of Copaxone®.” left out

AT84 model = conditions: low-dose GA (300 μg) alone, previous study; cited from earlier work

For Glatiramer acetate [GA], the “Ki67 results, treated” value (Ki-67; patient BCCa-Left Nasal Ala, after 2 Copaxone injections) was 60%, the “Ki67 results, biopsy” value (Ki-67; patient BCCa-Left Nasal Ala) was 65% and the “Ki67 results, treated” value (Ki-67; patient BCCa-Right Flank, after 3 Copaxone injections) was 44%. The “Ki67 results, biopsy” value (Ki-67; patient BCCa-Right Flank) was 62%, the “Ki67 results, treated” value (Ki-67; patient BCCa-Right Post. Neck, after 2 Copaxone injections) was 45% and the “Ki67 results, biopsy” value (Ki-67; patient BCCa-Right Post. Neck) was 70%. The “Ki67 results, treated” value (Ki-67; patient SCCa-Right Cheek, after 1 Copaxone injection) was 45%, the “Ki67 results, biopsy” value (Ki-67; patient SCCa-Right Cheek) was 55% and the “Ki67, marker of cell proliferation (overall)” value (Ki-67; patients, biopsy vs treated tumor) was “Consistent reductions in Ki67”. For the same substance, the “systemic cytokines associated with cytokine release syndrome” value (EO771 tumors) was “does not induce systemic cytokines typically associated with cytokine release syndrome”, the “retention of co-delivered immunostimulants at injection site” value [1] was “retaining other HIT-IT such as CpG and PolyI: C at the intratumoral site of injection” and the “number of animals alive on Day 45 (study termination)” value (CT26wt tumors) was 0. For the same substance, the “injection site reactions (overall)” value ([2]; intratumoral/peritumoral injection, patients) was “Injection site reactions were observed in and around tumor tissues”, the “grade 2 or higher adverse events” value ([2]; nine patients, Copaxone 40 mg intratumoral) was “no grade 2 or higher adverse events” and the “treatment related adverse events reported (number)” value ([2]; nine patients, Copaxone 40 mg intratumoral, 1-3 injections) was 3. For the same substance, the “grade of treatment related adverse events” value ([2]; nine patients, Copaxone 40 mg intratumoral, CTCAE v5.0) was “grade 1”, the “Injection Site Reaction” value ([2]; patient BCCa-Left Nasal Ala, 2 Copaxone injections) was “Grade 1-Mild” and the “Injection Site Reaction” value ([2]; patient BCCa-Left Nasal Ala, 2 Copaxone injections, listed as Copaxone) was “grade 1 injection site reaction described as pressure and itching”. For the same substance, the “Injection Site Reaction” value ([2]; patient BCCa-Right Flank, 3 Copaxone injections) was 1st inj. - Pain, the “Injection Site Reaction” value ([2]; patient BCCa-Right Post. Neck, 2 Copaxone injections) was “Grade 1-Mild” and the “Injection Site Reaction” value ([2]; patient BCCa-Right Post. Neck, 2 Copaxone injections, listed as Copaxone) was “grade 1 burning with injection of lidocaine”. The “Injection Site Reaction” value ([2]; patient Melanoma-Left Scalp, 2 Copaxone injections) was “None”, the “Injection Site Reaction” value ([2]; patient Melanoma-Mid Back, 2 Copaxone injections) was “None” and the “Injection Site Reaction” value ([2]; patient SCCa-Right Cheek, 1 Copaxone injection) was “None”. The “tolerability of intratumoral injections” value ([2]; patients) was “well tolerated” and the “tumor growth / tumor size” value (AT84 model) was “significantly increased tumor growth; also recorded: increases tumor size”.
